# Data published in paper PMC7254530 (ACS Omega, 2020).
# pIC50, pKd: −log10 of the molar value. Where two headings read alike, the source gives them in different places.
# Columns and labels:
# E. coli ZJ478 = format: in vivo, C57BL/6J male mice; details: for survival rate: 120 h
# [1] = system: E. coli ZJ487 (NDM-1/MCR-1); assay: microbe, parasite or virus in culture; format: cell-based, Escherichia coli; details: for MIC: Escherichia coli; for MIC of Mep combination: Mep with the named analogue at 32 μg/mL; for FIC Index: analogue + Mep; for MIC of analogues of OA combination: analogue with Mep
# MH-S cells = format: cell-based, mouse; details: 6 h
# OXA-1 = OXA-1 (Escherichia coli, UniProt P13661); assay: biochemical; set-up: species or system E. coli; details: IC50, purified OXA-1
# Sequence of OXA-1 (P13661 26-276): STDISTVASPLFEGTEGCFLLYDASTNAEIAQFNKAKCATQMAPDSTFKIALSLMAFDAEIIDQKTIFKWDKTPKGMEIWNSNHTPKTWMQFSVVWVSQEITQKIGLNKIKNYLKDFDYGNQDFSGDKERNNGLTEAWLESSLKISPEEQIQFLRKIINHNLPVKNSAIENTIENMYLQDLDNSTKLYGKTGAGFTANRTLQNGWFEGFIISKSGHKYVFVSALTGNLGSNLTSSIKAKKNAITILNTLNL
# [2] = system: NDM-1-Asp199Ala, NDM-1-Thr201Ala, and NDM-1-Phe240Ala; format: biochemical
# E. coli ZJ487 = format: cell-based, Escherichia coli; details: OA 32 μg/mL with Mep; postinoculation
# A549 cells = format: cell-based, human; details: 6 h
# S. aureus USA300 [3] = format: cell-based, Staphylococcus aureus; details: OA combined with penicillin G
# [4] = system: E. coli BL21 (pET28a-SP-NDM-1); format: cell-based, Escherichia coli; details: OA 32 μg/mL with Mep; postinoculation
# S. aureus USA300 [5] = format: in vivo, C57BL/6J male mice; details: for survival rate: 96 h; for activity of β-lactamases in bronchoalveolar lavage fluid: 36 h
# [6] = system: AmpC β-lactamase, E. coli BL21 (pET21a); format: biochemical; details: co-culture or co-incubation with OA
# NDM-1 F240A = NDM-1 F240A (Klebsiella pneumoniae, UniProt C7C422, F240A); assay: biochemical; format: binding
# TEM-1 = TEM-1 (Escherichia coli, UniProt P62593); assay: biochemical; details: IC50, purified TEM-1
# Sequence of TEM-1 (P62593 24-286 limits assumed): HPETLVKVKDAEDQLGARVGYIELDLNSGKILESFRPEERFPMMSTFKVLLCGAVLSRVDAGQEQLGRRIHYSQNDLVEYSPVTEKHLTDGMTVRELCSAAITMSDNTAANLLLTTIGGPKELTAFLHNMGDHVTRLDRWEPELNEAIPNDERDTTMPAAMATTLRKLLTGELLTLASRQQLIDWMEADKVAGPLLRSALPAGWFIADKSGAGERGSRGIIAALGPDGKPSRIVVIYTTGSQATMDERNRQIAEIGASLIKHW
# suilysin (SLY) = suilysin (SLY) (Streptococcus suis, UniProt Q55996); assay: biochemical
# NDM-1 = NDM-1 (Escherichia coli, UniProt E5KIY2); format: biochemical, E. coli; details: OA analogues, Figure 3G
# [7] = named compound combined with Mep 5 mg/kg
# [8] = OA combined with penicillin G, 36 h postinfection
# [9] = monotherapy 50 mg/kg subcutaneous every 8 h
# [10] = read-out: MIC of analogues of OA alone, ZJ487, Table 1, median (range)
compound,measurement,setting,value
"C[C@@H](O)[C@H]1C(=O)N2C(C(=O)O)=C(S[C@@H]3CN[C@H](C(=O)N(C)C)C3)[C@H](C)[C@H]12 [Meropenem, meropenem, reference compound]",survival rate,"E. coli ZJ478; Mep 5 mg/kg alone, subcutaneous every 8 h",44.4%
same,MIC,"[1]; read-out: MIC of Mep alone, ZJ487, Table 1, median (range)",32 µg/mL
same,MIC of Mep alone,"[1]; ZJ487, Table 1, median (range), listed as Mep",16(16–32) μg/mL
"CC1(C)CC[C@]2(C(=O)O)CC[C@]3(C)C(=CC[C@@H]4[C@@]5(C)CC[C@H](O)C(C)(C)[C@@H]5CC[C@]43C)[C@@H]2C1 [OA, oleanolic acid]",concentration protecting cells from hemolysin-mediated cell injury,MH-S cells,1 to 4 µg/mL
same,pIC50,OXA-1,< 3.96
same,inhibitory effect on activity of NDM-1 mutants,[2],significant inhibitory effect was not detected
same,time to complete elimination,E. coli ZJ487,≤ 3 h
same,concentration protecting cells from hemolysin-mediated cell injury,A549 cells,1 to 4 µg/mL
same,bactericidal effect,S. aureus USA300 [3],"significantly eliminate, but not thoroughly kill"
same,time to complete elimination,[4],≤ 6 h
same,E. coli colonization in the liver and spleen,"E. coli ZJ478; OA combined with Mep, 36 h postinfection",significantly inhibited
same,survival rate,E. coli ZJ478; [7],61.1%
same,survival rate,"S. aureus USA300 [5]; OA 50 mg/kg combined with penicillin G 50 mg/kg, subcutaneous every 8 h",75.0%
same,lung lesions,S. aureus USA300 [5]; OA combined with penicillin G,greatly alleviated
same,"IL-1β, IL-6, and TNF-α levels in bronchoalveolar lavage fluid",S. aureus USA300 [5]; [8],significant decreases
same,number of bacteria in the lungs,S. aureus USA300 [5]; [8],significant reduction
same,bacterial burden and inflammatory responses,S. aureus USA300 [5]; OA monotherapy,also inhibited
same,survival rate,S. aureus USA300 [5]; [9],43.8%
same,activity of β-lactamases in bronchoalveolar lavage fluid,S. aureus USA300 [5]; monotherapy,inhibited
same,activity of β-lactamases in bronchoalveolar lavage fluid,S. aureus USA300 [5]; penicillin G combined with OA,inhibited
same,inhibitory effect on β-lactamase activity in culture supernatant,[6],No significant inhibitory effect
same,pKd,NDM-1 F240A,4.84
same,pIC50,TEM-1,< 3.96
"CC1(C)S[C@@H]2[C@H](NC(=O)Cc3ccccc3)C(=O)N2[C@H]1C(=O)O [Penicillin G, penicillin G, reference compound]",survival rate,S. aureus USA300 [5]; [9],25.0%
same,activity of β-lactamases in bronchoalveolar lavage fluid,S. aureus USA300 [5]; monotherapy,such inhibition was not observed
CC1(C)CC[C@]2(C(=O)O)CC[C@]3(C)C(=CC[C@@H]4[C@@]5(C)C[C@@H](O)[C@H](O)[C@@](C)(CO)[C@@H]5CC[C@]43C)[C@@H]2C1 [arjunolic acid],MIC,[1]; [10],512 µg/mL
same,MIC of Mep combination,"[1]; ZJ487, median (range)",8(4–16) μg/mL
same,FIC Index,[1]; ZJ487,0.40 ± 0.14
same,MIC of analogues of OA combination,[1]; ZJ487,32 μg/mL
C[C@H]1[C@H](C)CC[C@]2(C(=O)O)CC[C@]3(C)C(=CC[C@@H]4[C@@]5(C)C[C@@H](O)[C@H](O)C(C)(C)[C@@H]5CC[C@]43C)[C@H]12 [corosolic acid],survival rate,E. coli ZJ478; [7],77.8%
same,MIC,[1]; [10],512 µg/mL
same,MIC of Mep combination,"[1]; ZJ487, median (range)",2(2–4) μg/mL
same,FIC Index,[1]; ZJ487,0.17 ± 0.04
same,MIC of analogues of OA combination,[1]; ZJ487,32 μg/mL
same,pIC50,suilysin (SLY),> 5.67
same,inhibitory effect against NDM-1,NDM-1,robust inhibitory effects
CC1(C)[C@@H](O[C@H]2O[C@H](C(=O)O)[C@@H](O)[C@H](O)[C@H]2O[C@@H]2O[C@H](C(=O)O)[C@@H](O)[C@H](O)[C@H]2O)CC[C@]2(C)[C@H]3C(=O)C=C4[C@@H]5C[C@@](C)(C(=O)O)CC[C@]5(C)CC[C@@]4(C)[C@]3(C)CC[C@@H]12 [glycyrrhizic acid],MIC,[1]; [10],512 µg/mL
same,MIC of Mep combination,"[1]; ZJ487, median (range)",8(4–16) μg/mL
same,FIC Index,[1]; ZJ487,0.40 ± 0.14
same,MIC of analogues of OA combination,[1]; ZJ487,32 μg/mL
CC1(C)CC[C@]2(C(=O)O)CC[C@]3(C)C(=CC[C@@H]4[C@@]5(C)C[C@@H](O)[C@H](O)C(C)(C)[C@@H]5CC[C@]43C)[C@@H]2C1 [maslinic acid],MIC,[1]; [10],512 µg/mL
same,MIC of Mep combination,"[1]; ZJ487, median (range)",4(2–4) μg/mL
same,FIC Index,[1]; ZJ487,0.38 ± 0.00
same,MIC of analogues of OA combination,[1]; ZJ487,32 μg/mL
C[C@H]1[C@H](C)CC[C@]2(C(=O)O)CC[C@]3(C)C(=CC[C@@H]4[C@@]5(C)CC[C@H](O)C(C)(C)[C@@H]5CC[C@]43C)[C@H]12 [ursolic acid],MIC,[1]; [10],512 µg/mL
same,MIC of Mep combination,"[1]; ZJ487, median (range)",2(2–4) μg/mL
same,FIC Index,[1]; ZJ487,0.17 ± 0.04
same,MIC of analogues of OA combination,[1]; ZJ487,32 μg/mL
same,inhibitory effect against NDM-1,NDM-1,robust inhibitory effects
α-boswellic acid,MIC of Mep combination,"[1]; ZJ487, median (range)",16(16) μg/mL
same,MIC of analogues of OA alone,"[1]; ZJ487, Table 1, median (range)",512(≥512) μg/mL
same,FIC Index,[1]; ZJ487,0.73 ± 0.29
same,MIC of analogues of OA combination,[1]; ZJ487,32 μg/mL
